How the values were obtained:
alloreactive T cells = assay: Cytokine production of alloreactive T cells stimulated with alloantigen; type: cell-based; conditions: treated with ATM inhibiting agent in addition to alloantigen; preliminary data
C57BL/6 T cells [1] = assay: Stimulation of T cells with anti-CD3 and CD28 in the presence of KU-55933 (annexin-V/CFSE flow cytometry); type: cell-based, mouse
Experimental: Cells were then labeled for 20 minutes with 2 μM 5(6)-Carboxyfluorescein diacetate N-succinimidyl ester (CFSE, Sigma-Aldrich) in Hank's balanced salt solution (HBSS, Mediatech, Herndon, Va.). Cells were plated at a concentration of 2-5×10^6/ml in Dulbecco's modified eagle's medium (DMEM (Mediatech) supplemented with 15% heat-inactivated fetal calf serum (Sigma-Aldrich, St. Louis, Mo.), penicillin (100 U/ml), streptomycin (100 μg/ml), 2 mM L-glutamine, 10 mM Hepes, 0.1 mM nonessential amino acids, 1 mM sodium pyruvate (Mediatech) (complete DMEM). Cells were treated with 1 μg/ml anti-CD3 antibody (2C11 (30)) and 1 μg/ml anti-CD28 antibody (37.51, Gross, et al., J. Immunol. 149:380 (1992)). Cells were cultured at 37 C, 5% CO2 for the indicated time. For studies of Atm−/− T cell proliferation in response to mitogens, purified T cells were cultured with 2 μg/ml Concanavalin A or 10 ng/ml PMA and 1 μg/m ionomycin.
Stimulation of T cells in the Presence of KU-55933: T cells were purified from C57BL/6 mice (Jackson Laboratories) and re-suspended at 1.5×10^6 cells/ml in complete DMEM with 1 μg/10^6 cells anti-CD3 and CD28 and the indicated concentration of KU-55933 (KuDos Pharmaceuticals) or the same volume of DMSO (Sigma-Aldrich). Some cultures were in addition treated with 4 mM N-acetyl cysteine (Sigma-Aldrich).
Flow Cytometry: Cells were harvested, washed in HBSS and stained with Annexin-V phycoerythrin (BD Biosciences), or Annexin V-biotin (R&D Systems) in addition to streptavidin conjugated phycoerythrin according to the manufacturer's instructions. Cells were then stained with anti-CD4-APC (RM4-5, BD Biosciences) or anti-CD8-APC (53-6.7 BD Biosciences) and 7-actinomycin D (Sigma-Aldrich) or propidium iodide (Sigma-Aldrich). All analysis was performed using. FloJo software (TreeStar Inc).

[2] = system: other PI-3 kinase-like kinase family members; conditions: cited from earlier work
[3] = system: ATM targets including p53, H2AX and NBS1; conditions: cited from earlier work
[4] = system: graft vs. host disease (GVHD); assay: GVHD after BMT: lethally irradiated Balb/c mice given C57BL/6 bone marrow and treated splenocytes; type: in vivo, mouse
Experimental: To test this, Balb/c mice were lethally irradiated one day prior to BMT with C57BL/6 bone marrow. 48 Hours after BMT, mice received splenocytes treated with allogeneic stimulators, allogeneic stimulators and KU55933, or no stimulators and KU55933.

C57BL/6 T cells [5] = assay: Stimulation of T cells with anti-CD3 and CD28 in the presence of caffeine (annexin-V/CFSE flow cytometry); type: cell-based, mouse
Experimental: Cells were then labeled for 20 minutes with 2 μM 5(6)-Carboxyfluorescein diacetate N-succinimidyl ester (CFSE, Sigma-Aldrich) in Hank's balanced salt solution (HBSS, Mediatech, Herndon, Va.). Cells were plated at a concentration of 2-5×10^6/ml in Dulbecco's modified eagle's medium (DMEM (Mediatech) supplemented with 15% heat-inactivated fetal calf serum (Sigma-Aldrich, St. […] Cells were treated with 1 μg/ml anti-CD3 antibody (2C11 (30)) and 1 μg/ml anti-CD28 antibody (37.51, Gross, et al., J. Immunol. 149:380 (1992)). […] For studies of Atm−/− T cell proliferation in response to mitogens, purified T cells were cultured with 2 μg/ml Concanavalin A or 10 ng/ml PMA and 1 μg/m ionomycin. Stimulation of T cells in the Presence of Caffeine: […] Some cultures were, in addition, treated with 2 mM N-acetyl cysteine (Sigma-Aldrich). Flow Cytometry: Cells were harvested, washed in HBSS and stained with Annexin-V phycoerythrin (BD Biosciences), or Annexin V-biotin (R&D Systems) in addition to streptavidin conjugated phycoerythrin according to the manufacturer's instructions. Cells were then stained with anti-CD4-APC (RM4-5, BD Biosciences) or anti-CD8-APC (53-6.7 BD Biosciences) and 7-actinomycin D (Sigma-Aldrich) or propidium iodide (Sigma-Aldrich). All analysis was performed using. FloJo software (TreeStar Inc).

Atm deficient T cells = assay: Stimulation of Atm deficient T cells with anti-CD3 and CD28 with or without NAC; type: cell-based, mouse; conditions: 2 mM NAC
Source text: Mice: Heterozygous 129S6/SvEvTac-Atm^tm1-Awb mice […] were purchased from the Jackson Laboratory (Bar Harbor, Me.). An independently generated Atm knockout mouse model was used to confirm our observations (Borghesani, et al., Proc. Nat'l Acad. Sci. USA 97:3336 (2000)). All mice were housed under microisolator conditions in autoclaved cages and were maintained on irradiated feed and autoclaved acidified drinking water. All sentinel mice housed in the same colony were free of viral antibodies. Four- to 6-week-old mice were used in all experiments.
Purification and Stimulation of T Cells: Splenocytes were harvested from 4-6 week old Atm−/− mice or wild-type littermates bred in our animal facility. In some experiments C57BL/6 mice were used as a source of wild-type T cells. Red blood cells were lysed using ACK lysing buffer (Cambrex, Walkerville, Md.) for 3 minutes at room temperature. In experiments in which T cells were purified, splenocytes were incubated with anti-CD4 (GK1.5, Dialynas, et al., J. Immunol. 131:2445 (1983)) and anti-CD8 (2.43, Sarmiento, et al., J. Immunol. 125:2665 (1980)) antibodies for 30 min at 4° C. Cells were then washed and incubated with magnetic beads conjugated to anti-rat IgG antibody, prior to positive selection by MACS according to the manufacturer's instructions (Miltenyi Biotech, USA Auburn Calif.). […]

ATR = ATR (Homo sapiens, UniProt Q13535); conditions: 3 mM caffeine; cited from earlier work
ATM = ATM (Homo sapiens, UniProt Q13315); conditions: cited from earlier work
Sequence of ATM (Q13315 whole entry, species assumed): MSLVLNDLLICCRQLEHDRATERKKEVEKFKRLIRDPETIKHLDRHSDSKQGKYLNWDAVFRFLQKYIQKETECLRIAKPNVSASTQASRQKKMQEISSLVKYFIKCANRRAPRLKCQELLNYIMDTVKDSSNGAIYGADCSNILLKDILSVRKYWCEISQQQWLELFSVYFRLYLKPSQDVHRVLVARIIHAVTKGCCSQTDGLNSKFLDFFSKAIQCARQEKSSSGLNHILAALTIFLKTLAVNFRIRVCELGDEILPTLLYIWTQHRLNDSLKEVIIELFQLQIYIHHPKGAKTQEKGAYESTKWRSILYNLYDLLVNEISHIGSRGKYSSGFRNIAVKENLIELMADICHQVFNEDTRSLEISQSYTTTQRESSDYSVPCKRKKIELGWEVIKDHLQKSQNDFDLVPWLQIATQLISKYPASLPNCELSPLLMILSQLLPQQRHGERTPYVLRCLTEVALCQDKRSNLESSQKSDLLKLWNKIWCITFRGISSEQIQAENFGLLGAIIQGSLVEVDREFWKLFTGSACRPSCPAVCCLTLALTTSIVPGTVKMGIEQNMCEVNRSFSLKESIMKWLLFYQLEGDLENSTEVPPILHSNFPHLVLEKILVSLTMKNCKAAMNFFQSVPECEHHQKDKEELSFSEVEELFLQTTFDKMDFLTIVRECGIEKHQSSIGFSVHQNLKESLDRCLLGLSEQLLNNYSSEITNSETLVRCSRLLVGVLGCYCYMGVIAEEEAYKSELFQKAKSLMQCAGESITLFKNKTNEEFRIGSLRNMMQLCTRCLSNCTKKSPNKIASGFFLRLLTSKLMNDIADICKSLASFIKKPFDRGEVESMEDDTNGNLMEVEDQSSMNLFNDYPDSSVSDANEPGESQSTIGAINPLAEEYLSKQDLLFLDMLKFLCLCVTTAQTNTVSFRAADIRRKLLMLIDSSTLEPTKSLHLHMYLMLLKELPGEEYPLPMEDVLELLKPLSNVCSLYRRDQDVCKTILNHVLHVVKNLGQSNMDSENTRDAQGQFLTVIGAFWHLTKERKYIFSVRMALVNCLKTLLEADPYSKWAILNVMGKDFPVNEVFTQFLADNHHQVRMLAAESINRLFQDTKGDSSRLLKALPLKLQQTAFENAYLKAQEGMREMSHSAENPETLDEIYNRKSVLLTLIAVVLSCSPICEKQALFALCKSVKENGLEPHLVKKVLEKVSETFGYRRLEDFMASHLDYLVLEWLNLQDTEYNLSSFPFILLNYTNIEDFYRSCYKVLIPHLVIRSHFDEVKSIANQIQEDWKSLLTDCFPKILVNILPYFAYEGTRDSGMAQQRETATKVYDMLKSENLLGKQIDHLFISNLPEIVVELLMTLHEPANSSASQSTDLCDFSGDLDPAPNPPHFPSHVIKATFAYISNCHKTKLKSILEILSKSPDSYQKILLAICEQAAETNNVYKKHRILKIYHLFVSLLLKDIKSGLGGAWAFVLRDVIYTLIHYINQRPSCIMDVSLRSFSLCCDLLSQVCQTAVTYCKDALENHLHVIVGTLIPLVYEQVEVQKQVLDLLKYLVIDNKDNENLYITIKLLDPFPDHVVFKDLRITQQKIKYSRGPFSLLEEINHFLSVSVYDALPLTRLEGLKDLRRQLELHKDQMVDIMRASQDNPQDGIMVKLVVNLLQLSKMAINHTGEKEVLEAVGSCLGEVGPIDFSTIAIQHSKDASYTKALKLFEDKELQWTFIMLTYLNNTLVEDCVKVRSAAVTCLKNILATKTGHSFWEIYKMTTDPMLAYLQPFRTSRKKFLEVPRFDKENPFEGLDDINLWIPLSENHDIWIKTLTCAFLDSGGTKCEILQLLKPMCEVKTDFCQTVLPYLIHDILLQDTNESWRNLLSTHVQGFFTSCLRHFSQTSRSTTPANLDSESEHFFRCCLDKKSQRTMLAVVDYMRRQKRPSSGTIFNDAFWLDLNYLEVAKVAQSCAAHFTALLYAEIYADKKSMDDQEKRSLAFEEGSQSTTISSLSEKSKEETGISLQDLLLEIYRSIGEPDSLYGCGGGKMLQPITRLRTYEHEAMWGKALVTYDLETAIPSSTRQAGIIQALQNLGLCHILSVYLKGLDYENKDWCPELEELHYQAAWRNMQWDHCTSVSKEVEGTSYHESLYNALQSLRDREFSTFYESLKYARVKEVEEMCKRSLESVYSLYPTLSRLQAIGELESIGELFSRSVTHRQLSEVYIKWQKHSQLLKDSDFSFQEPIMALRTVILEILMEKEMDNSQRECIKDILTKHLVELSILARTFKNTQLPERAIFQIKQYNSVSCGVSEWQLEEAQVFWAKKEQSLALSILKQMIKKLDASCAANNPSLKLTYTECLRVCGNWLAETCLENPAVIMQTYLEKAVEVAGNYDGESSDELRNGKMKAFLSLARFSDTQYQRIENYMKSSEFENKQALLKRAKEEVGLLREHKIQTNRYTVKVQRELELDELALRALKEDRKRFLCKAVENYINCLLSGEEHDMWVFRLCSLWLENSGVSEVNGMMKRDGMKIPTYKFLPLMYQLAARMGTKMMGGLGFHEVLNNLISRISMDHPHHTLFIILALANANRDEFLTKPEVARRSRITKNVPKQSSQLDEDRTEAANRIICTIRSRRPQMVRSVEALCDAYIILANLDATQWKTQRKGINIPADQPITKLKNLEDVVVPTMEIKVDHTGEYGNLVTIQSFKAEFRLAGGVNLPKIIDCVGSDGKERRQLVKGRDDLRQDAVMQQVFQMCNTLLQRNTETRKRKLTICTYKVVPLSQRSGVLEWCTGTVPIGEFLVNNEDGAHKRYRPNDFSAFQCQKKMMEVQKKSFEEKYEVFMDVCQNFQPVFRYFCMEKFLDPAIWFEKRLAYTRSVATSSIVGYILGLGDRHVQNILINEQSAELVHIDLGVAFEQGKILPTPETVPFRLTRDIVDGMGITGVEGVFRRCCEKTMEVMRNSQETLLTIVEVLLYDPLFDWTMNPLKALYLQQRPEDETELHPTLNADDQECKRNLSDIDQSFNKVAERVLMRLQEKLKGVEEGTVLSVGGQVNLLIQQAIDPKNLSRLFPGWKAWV

[6] = C57BL/6 T cells stimulated with anti-CD3 and CD28

In the case of `O=c1cc(-c2cccc3c2Sc2ccccc2S3)oc(N2CCOCC2)c1` [KU-55933, 2-morpholin-4-yl-6-thianthren-1-yl-pyran-4-one], the “production of IL-2, IFN-g and IL-4 in response to alloantigen” value (alloreactive T cells) is reported as “fail to produce these cytokines”, the “T cell proliferation versus untreated controls” value (C57BL/6 T cells [1]; 20 μM KU-55933, 48 and 72 hours after stimulation) is reported as “significantly less proliferation” and the “effect on cell viability” value (C57BL/6 T cells [1]; 20 μM KU-55933, 24 hours, anti-CD3 and CD28) is reported as “no effect”. The “KU-55933 concentration (as low as) that induced T cell apoptosis” value (C57BL/6 T cells [1]; [6]) was 10 µM, the “response of normal T cells exposed to anti-CD3 and anti-CD28” value (C57BL/6 T cells [1]; exposed to KU-55933) was “undergo apoptosis” and the “frequency of T cells undergoing apoptosis with increasing concentration” value (C57BL/6 T cells [1]; increasing KU-55933 concentration, anti-CD3 and CD28) was “dose dependent increase”. For the same compound, the “inhibition of other PI-3 kinase-like kinase family members” value [2] was “does not inhibit”, the “ionizing-radiation-dependent phosphorylation of known ATM targets” value [3] was “abrogation” and the animals surviving long-term ([4]; recipients of splenocytes treated ex vivo with allogeneic stimulators and KU55933, given 48 hours after BMT) was “three out of four”. For the same compound, the “development of GVHD (time)” value ([4]; recipients of unstimulated splenocytes treated with KU55933) was 30 to 40 days.
In the case of `CC(=O)N[C@@H](CS)C(=O)O` [NAC, N-acetyl cysteine], the “apoptosis induced in the presence of KU-55933, effect of NAC” value (C57BL/6 T cells [1]; NAC added (4 mM per method), 20 μM KU-55933, anti-CD3 and CD28, normal T cells) is reported as “prevented”, the “apoptosis induced in the presence of caffeine, effect of NAC” value (C57BL/6 T cells [5]; 2 mM NAC added, 2.5 mM caffeine, anti-CD3 and CD28, normal T cells) is reported as “prevented” and the “proliferation of Atm deficient T cells, effect of NAC” value (Atm deficient T cells) is reported as “restored the ability of Atm deficient T cells to undergo proliferation”.
For `Cn1c(=O)c2c(ncn2C)n(C)c1=O` [caffeine], the “inhibition of ATR function” value (ATR) is listed as 50%, the “T cells remaining annexin-V negative” value (C57BL/6 T cells [5]; 2.5 mM caffeine, 48 and 72 hours after stimulation) is listed as “only T cells which did not divide remained annexin-V negative” and the “effect on cell viability” value (C57BL/6 T cells [5]; 2.5 mM caffeine, 24 hours, anti-CD3 and CD28) is listed as “no effect”. The “caffeine concentration (as low as) that induced T cell apoptosis” value (C57BL/6 T cells [5]; [6]) was 1 mM, the “response of normal T cells exposed to anti-CD3 and anti-CD28” value (C57BL/6 T cells [5]; exposed to caffeine) was “undergo apoptosis” and the “frequency of T cells undergoing apoptosis with increasing concentration” value (C57BL/6 T cells [5]; increasing caffeine concentration, anti-CD3 and CD28) was “dose dependent increase”. For the same compound, the “ATM function in vitro” value (ATM; 1 mM caffeine) was “inhibit ATM” and the “inhibition of ATM function” value (ATM; 3 mM caffeine) was 50%.
